From US20030170326A1, “Bioavailability enchancing activity of Zingiber officinale Linn and its extracts/fractions thereof” (COUNCIL OF SCIENTIFIC AND INDUSTRIAL RESEARCH, priority 2001, published 2003)

assay: not given; conditions: rat, in vivo

Compound	% Enhancement in bioavailability, Piperine + BE from Zingiber officinale
Nc1nc2c(ncn2COCCO)c(=O)[nH]1 [Acyclovir]	85%
NCC[C@H](O)C(=O)N[C@@H]1C[C@H](N)[C@@H](O[C@H]2O[C@H](CN)[C@@H](O)[C@H](O)[C@H]2O)[C@H](O)[C@H]1O[C@H]1O[C@H](CO)[C@@H](O)[C@H](N)[C@H]1O [Amikacin]	Nil
CCOC(=O)C1=C(COCCN)NC(C)=C(C(=O)OC)C1c1ccccc1Cl (centres unmarked) [Amlodipine]	95%
CC[C@H]1OC(=O)[C@H](C)[C@@H](O[C@H]2C[C@@](C)(OC)[C@@H](O)[C@H](C)O2)[C@H](C)[C@@H](O[C@@H]2O[C@H](C)C[C@H](N(C)C)[C@H]2O)[C@](C)(O)C[C@@H](C)CN(C)[C@H](C)[C@@H](O)[C@]1(C)O [Azithromycin]	85%
CC1=C(C(=O)O)N2C(=O)[C@@H](NC(=O)[C@H](N)c3ccc(O)cc3)[C@H]2SC1 [Cefadroxil]	65%
C=CC1=C(C(=O)O)N2C(=O)[C@@H](NC(=O)/C(=N\OCC(=O)O)c3csc(N)n3)[C@H]2SC1 [Cefixime]	Nil
Cc1onc(-c2ccccc2Cl)c1C(=O)N[C@@H]1C(=O)N2[C@@H]1SC(C)(C)[C@@H]2C(=O)O [Cloxacillin]	90%
N[C@@H]1CON=C1O [Cycloserine]	70%
O=C(O)Cc1ccccc1Nc1c(Cl)cccc1Cl [Diclofenac]	140%
CC[C@H]1OC(=O)[C@H](C)[C@@H](O[C@H]2C[C@@](C)(OC)[C@@H](O)[C@H](C)O2)[C@H](C)[C@@H](O[C@@H]2O[C@H](C)C[C@H](N(C)C)[C@H]2O)[C@](C)(O)C[C@@H](C)C(=O)[C@H](C)[C@@H](O)[C@]1(C)O [Erythromycin]	105%
CC[C@@H](CO)NCCN[C@@H](CC)CO [Ethambutol]	Nil
NNC(=O)c1ccncc1 [Isoniazid]	Negligible
CCn1cc(C(=O)O)c(=O)c2cc(F)c(N3CCNCC3)cc21 [Norfloxacin]	Negligible
CC1COc2c(N3CCN(C)CC3)c(F)cc3c(=O)c(C(=O)O)cn1c23 (centres unmarked) [O-floxacin, Ofloxacin]	67%
COc1ccc2[nH]c([S+]([O-])Cc3ncc(C)c(OC)c3C)nc2c1 (centres unmarked) [Omeprazole]	Nil
CN1C(C(=O)Nc2ccccn2)=C(O)c2ccccc2S1(=O)=O [Piroxicam]	134%
NC(=O)c1cnccn1 [Pyrazinamide]	Nil
CNC(=C[N+](=O)[O-])NCCSCc1ccc(CN(C)C)o1 [Ranitidine]	165%
CC[C@H]1OC(=O)[C@H](C)[C@@H](O[C@H]2C[C@@](C)(OC)[C@@H](O)[C@H](C)O2)[C@H](C)[C@@H](O[C@@H]2O[C@H](C)C[C@H](N(C)C)[C@H]2O)[C@](C)(O)C[C@@H](C)/C(=N\OCOCCOC)[C@H](C)[C@@H](O)[C@]1(C)O [Roxythromycin]	93%
C=CC[C@@H]1/C=C(\C)C[C@H](C)C[C@H](OC)[C@H]2O[C@@](O)(C(=O)C(=O)N3CCCC[C@H]3C(=O)O[C@H](/C(C)=C/[C@@H]3CC[C@@H](O)[C@H](OC)C3)[C@H](C)[C@@H](O)CC1=O)[C@H](C)C[C@@H]2OC [Tacrolimus]	117%

assay: Bioavailability enhancement of a drug/nutraceutical/herbal product given with bioenhancer (BE) to fasted rats; plasma drug level by HPLC, 0-24 hrs; conditions: drug + BE from Zingiber officinale (extract 30 mg/kg or fraction No 1 15 mg/kg)

Compound	% Enhancement in bioavailability, BE from Zingiber officinale
CN(Cc1cc(Br)cc(Br)c1N)C1CCCCC1 [Bromhexine]	46%

same assay, conditions: drug + piperine 8 mg/kg + BE from Zingiber officinale

Compound	% Enhancement in bioavailability, Piperine + BE from Zingiber officinale
O=c1[nH]cc(F)c(=O)[nH]1 [5-Fluorouracil]	93%
Cc1nnc2n1-c1ccc(Cl)cc1C(c1ccccc1)=NC2 [Aiprazolam, Alprazolam]	70%
CC1(C)S[C@@H]2[C@H](NC(=O)[C@H](N)c3ccc(O)cc3)C(=O)N2[C@H]1C(=O)O [Amoxycillin]	90%
CN(Cc1cc(Br)cc(Br)c1N)C1CCCCC1 [Bromhexine]	75%
CN/C(=N/CCSCc1nc[nH]c1C)NC#N [Cimetidine]	76%
Nc1ccc(S(=O)(=O)c2ccc(N)cc2)cc1 [Dapsone]	55%
COc1cccc2c1C(=O)c1c(O)c3c(c(O)c1C2=O)C[C@@](O)(C(=O)CO)C[C@@H]3O[C@H]1C[C@H](N)[C@H](O)[C@H](C)O1 [Doxorubicin]	75%
CCc1cc(C(N)=S)ccn1 [Ethionamide]	48%
CC(=O)N1CCN(c2ccc(OCC3COC(Cn4ccnc4)(c4ccc(Cl)cc4Cl)O3)cc2)CC1 (centres unmarked) [Ketoconazole]	100%
NCCCC[C@H](N[C@@H](CCc1ccccc1)C(=O)O)C(=O)N1CCC[C@H]1C(=O)O [Lisinopril]	100%
CN(Cc1cnc2nc(N)nc(N)c2n1)c1ccc(C(=O)N[C@@H](CCC(=O)O)C(=O)O)cc1 [Methotrexate]	49%
CS(=O)(=O)Nc1ccc([N+](=O)[O-])cc1Oc1ccccc1 [Nimesulide]	165%
CC(C)NCC(O)COc1cccc2ccccc12 (centres unmarked) [Propranolol]	104%
CO[C@H]1/C=C/O[C@@]2(C)Oc3c(C)c(O)c4c(O)c(c(/C=N/N5CCN(C)CC5)c(O)c4c3C2=O)NC(=O)/C(C)=C\C=C\[C@H](C)[C@H](O)[C@@H](C)[C@@H](O)[C@@H](C)[C@H](OC(C)=O)[C@@H]1C [Rifampicin]	98%
CC(C)(C)NCC(O)c1ccc(O)c(CO)c1 (centres unmarked) [Salbutamol]	92%
Cn1c(=O)c2[nH]cnc2n(C)c1=O [Theophylline]	80%
Cc1cn([C@H]2C[C@H](N=[N+]=[N-])[C@@H](CO)O2)c(=O)[nH]c1=O [Zidovudine]	126%
